This note sets out measurements from patent US8440637B2, “Combination treatment for the treatment of hepatitis C virus infection” (priority 2007, dated 2013).

Data set [1] deals with miR-122a. The data set can be described thus: Melting temperature (Tm) of LNA anti-miR/miR-122a RNA duplex. It counts as physicochemical, human. The note with it: for Tm, oligo to miR-122 RNA complement: miR-122a; for Tm (° C.): Table 2, towards synthetic miR-122a RNA oligonucleotide with phosphorothioate linkages, PS backbone. As to the method: The melting temperatures were assessed towards the mature miR-122a sequence, using a synthetic miR-122a RNA oligonucleotide with phosphorothioate linkaged.
(§1) The LNA anti-miR/miR-122a oligo duplex was diluted to 3 μM in 500 μl RNase free H2O, which was then mixed with 500 μl 2× dimerization buffer (final oligo/duplex conc. 1.5 μM, 2× Tm buffer: 200 mM NaCl, 0.2 mM EDTA, 20 mM NaP, pH 7.0, DEPC treated to remove RNases). The mix was first heated to 95 degrees for 3 minutes, then allowed to cool at room temperature (RT) for 30 minutes.
(§2) Following RT incubation Tm was measured on Lambda 40 UV/VIS Spectrophotometer with peltier temperature progammer PTP6 using PE Templab software (Perkin Elmer). The temperature was ramped up from 20° C. to 95° C. and then down again to 20° C., continuously recording absorption at 260 nm. First derivative and local maximums of both the melting and annealing was used to assess melting/annealing point (Tm), both should give similar/same Tm values. For the first derivative 91 points was used to calculate the slope.

The subject of data set [2] is miR-122a. The data set can be described thus: Plasma cholesterol in LNA anti-miR122 treated mice. It counts as in vivo, mouse. The note with it: Day 6; i.p. on day 0, 2 and 4. The method, then:
In vivo study: Ten groups of animals (female C57/BL6; 3 mice per group) were treated in the following manner. Group 1 animals were injected with 0.2 ml saline by i.p. on day 0, day 2 and day 4. Groups 2-10 were dosed by i.p. with three different conc. (25 mg/kg, 5 mg/kg and 1 mg/kg) of either LNA antimiR-122a/SEQ ID NO: 61 (group 2-4), LNA antimir-122a/SEQ ID NO: 66 (group 5-7) or LNA antimir-122a/SEQ ID NO: 63 (group 8-10); the LNA antimir-122a sequences are given in the Table 1. All three LNA antimiR-122a oligonucleotides target the liver-specific miR-122a. The doses were calculated from the Day 0 body weights of each animal.
The animals were sacrificed 48 hours after last dose (Day 6), retro-orbital blood was collected in tubes containing EDTA and the plasma fraction harvested and stored frozen −80° C. for cholesterol analysis. At sacrifice livers were dissected and one portion was cut into 5 mm cubes and immersed in 5 volumes of ice-cold RNAlater. […]
Total cholesterol level was measured in plasma using a colometric assay Cholesterol CP from ABX Pentra. Cholesterol was measured following enzymatic hydrolysis and oxidation (2,3). […] 250 μl reagent was added and within 5 min the cholesterol content measured at a wavelength of 540 nm. […] The cholesterol level was determined by subtraction of the background and presented relative to the cholesterol levels in plasma of saline treated mice.

The next data set deals with HCV replicon (NNeo/C-5B). Put plainly: HCV replication in Huh-7 cells transfected with HCV replicon, Northern blot. It counts as cell-based, Hepatitis C virus. The note with it: Huh-7 with HCV replicon; 48 hours; compared to mock and mismatch control. The method, then:
We assess the efficacy of SEQ ID NO: 63 reducing HCV replication in the Huh-7 based cell model. Preliminary data on SEQ ID NO: 63 along with its truncated version SEQ ID NO: 66 (13-mer LNA-antimiR) and 4 nt mismatch control from inhibiting HCV replication in the Huh-7 cell line transfected with a HCV replicon (NNeo/C-5B). The different LNA-antimiR molecules along with a 2′ OMe antisense and scramble oligonucleotide were transfected into Huh-7 cells, HCV was allowed to replicate for 48 hours. Total RNA samples extracted from the Huh-7 cells were subjected to Northern blot analysis.
In general terms: A replicon is a self-replicating genome or part of one, used to study replication in cells.

The test system of another data set is miR-122. The data set can be described thus: microRNA specific northern blot of mouse liver RNA. It counts as in vivo. The method, then:
We decided to assess the effect of SEQ ID NO:63 on miR-122 miRNA levels in the livers of SEQ ID NO: 63-treated mice. The LNA-antimiRs SEQ ID NO:63 and SEQ ID NO: 61 were administered into mice by three i.p. injections on every second day over a six-day-period at indicated doses followed by sacrificing the animals 48 hours after the last dose. Total RNA was extracted from the livers. miR-122 levels were assessed by microRNA specific northern blot (FIG. 6)
The liver RNA was also subjected to microRNA Northern blot. Shown in FIG. 13 is a membrane probed with a miR-122a specific probe (upper panel) and re-probed with a Let-7 specific probe (lower panel). With the miR-122 probe, two bands could be detected, one corresponding to mature miR-122 and one corresponding to a duplex between SEQ ID NO: 61 and miR-122.
Preparation of northern membranes was done as described in Sempere et al. 2002, except for the following changes: Total RNA, 10 μg per lane, in formamide loading buffer (47.5% formamide, 9 mM EDTA, 0.0125% Bromophenol Blue, 0.0125% Xylene Cyanol, 0.0125% SDS) was loaded onto a 15% denaturing Novex TBE-Urea polyacrylamide gel (Invitrogen) without preheating the RNA. The RNA was electrophoretically transferred to a GeneScreen plus Hybridization Transfer Membrane (PerkinElmer) at 200 mA for 35 min. Membranes were probed with 32P-labelled LNA-modified oligonucleotides complimentary to the mature microRNAs*. The LNA oligonucleotides were labelled and hybridized to the membrane as described in (Válóczi et al. 2004) except for the following changes: The prehybridization and hybridization solutions contained 50% formamide, 0.5% SDS, 5×SSC, 5×Denhardt's solution and 20 μg/ml sheared denatured herring sperm DNA. Hybridizations were performed at 45° C. The blots were visualized by scanning in a Storm 860 scanner. The signal of the background membrane was subtracted from the radioactive signals originating from the miRNA bands. The values of the miR-122 signals were corrected for loading differences based on the let-7a signal. […]

The subject of the next data set is 122R, DNA. Put plainly: Melting temperature (Tm) of oligo against DNA complement. Type of data set: physicochemical. The method, then:
as §1, §2
However, in one embodiment the Tm may be made with a complementary DNA ([…]) molecule. Typically the Tm measured against a DNA complementary molecule is about 10° C. lower than the Tm with an equivalent RNA complement. The Tm measured using the DNA complement may therefore be used in cases where the duplex has a very high Tm.

Strand notation (5' to 3'): a small letter for the sugar, then the base; units joined by * are phosphorothioate-linked, units joined directly phosphodiester-linked; [ ] holds rarer units or linkages, { } end groups; capitals alone tell only the bases. l = locked nucleic acid (LNA); [5mC] = 5-methylcytosine; d = 2'-deoxy (DNA)

On to “5′-AttGTcaCaCtCC-3′ (antisense lA*dT*dT*lG*lT*dC*dA*l[5mC]*dA*l[5mC]*dT*l[5mC]*l[5mC]) [SEQ ID NO: 66]”, for which the “Tm, oligo to miR-122 RNA complement” value in the data set with miR-122a [1] is 74 °C. In the data set with miR-122a [2], the “plasma cholesterol compared to saline control (in words)” value is on record as “markedly lowered level of plasma cholesterol”. The “HCV RNA / inhibition of HCV replication (in words)” value in the data set with HCV replicon (NNeo/C-5B) is recorded as “comparable efficacy with SEQ ID NO: 63”.

For “5′-CcAttGTcaCaCtCC-3′ (antisense CCATTGTCACACTCC; sugars from the 5' end ldlddllddldldll, backbone and methylation of C not given here) [SEQ ID NO: 63]”, in the data set with miR-122a [1], the “Tm (° C.)” value amounted to 78 °C and the “Tm, oligo to miR-122 RNA complement” value was found to be 79 °C. Also, the “plasma cholesterol compared to saline control (in words)” value in the data set with miR-122a [2] was “markedly lowered level of plasma cholesterol”. Also, in the data set on miR-122 (three i.p. injections every second day, 5 and 25 mg/kg, 48 hours after last dose), the “blocking of miR-122, northern blot (in words)” value is “completely blocked miR-122”. Also, in the data set on miR-122 (three i.p. injections every second day, 48 hours after last dose), the “duplex versus mature band on northern blot, comparison (in words)” value is “equally efficient at 1 mg/kg as SEQ ID NO: 61SEQ ID NO: 61 at 25 mg/kg”. In addition, the “Tm, oligo to DNA complement” value in the data set with 122R, DNA turned out to be 66 °C. Also, in the data set with HCV replicon (NNeo/C-5B), the “HCV RNA / inhibition of HCV replication (in words)” value is on record as “significant reduction of HCV RNA”.

With “5′-ccAttGtcAcaCtcCa-3′ (antisense CCATTGTCACACTCCA; sugars from the 5' end ddlddlddlddlddld, backbone and methylation of C not given here) [SEQ ID NO: 61]”, in the data set with miR-122a [1], the “Tm (° C.)” value came out at 69 °C and the “Tm, oligo to miR-122 RNA complement” value was found to be 69 °C. For the same substance, the “mature miR-122, small RNA northern blot (in words)” value in the data set on miR-122 (liver RNA, let-7a control not altered) is given as “significantly reduced levels of detectable mature miR-122”. The “Tm, oligo to DNA complement” value in the data set on 122R, DNA is 57 °C.
